One compound from EP4772186A1, “USE AND COMPOSITION OF POSTBIOTIC OF LACTOBACILLUS PARACASEI ET-22” (Inner Mongolia Yili Industrial Group Co., Ltd., priority 2023, dated 2025) can be followed below.

For test [1], the system named is indole, hexanoic acid, and propanoic acid. The experiment in a line: SPME-GC-MS of characteristic flavor compounds. The class given is cell-based, halitosis subjects (saliva). Here is the method:
Fresh saliva was collected from 10 halitosis subjects (Halimeter index >120). Subjects were required not to consume any food or drink for 2 hours before donating saliva. Saliva was directly spat into a saliva collection tube, 5 ml per person, and mixed. The mixture was centrifuged at 4500 rpm for 10 minutes, and the supernatant was collected, aliquoted, and stored at -80°C for subsequent experimental studies.
Lysate group: In a headspace vial, 100 µl of saliva was added first, followed by separate addition of ET-22 viable bacteria (1.0×10^9 CFU/ml), ET-22 heat-inactivated bacterial cells (obtained by inactivating viable bacteria at 1.0×10^9 CFU/ml), and lysate (obtained by inactivating and then filtering viable bacteria at 1.0×10^9 CFU/ml), each at 100µl. Then, 800 µl of SHI medium was added. After filling with nitrogen, anaerobic cultivation was performed for 10 hours for loading on machine, and then SPME-GC-MS was used to test the change in content of volatile organic compound.
NAD group: In a headspace vial, 100 µl of saliva was added first, followed by the separate addition of ET-22 viable bacteria (1.0×10^9 CFU/ml), ET-22 heat-inactivated bacterial cells (obtained by heat-inactivating viable bacteria at 1.0×10^9 CFU/ml), and NAD (100 µg/ml), each at 100µl. Then, 800 µl of SHI medium was added. After filling with nitrogen, anaerobic cultivation was performed for 10 hours for loading on machine, then SPME-GC-MS was used to test the changes in content of volatile organic compound.
2-hydroxy-3-phenylpropionic acid group: In a headspace vial, 100 µl of saliva was added first, followed by the separate addition of ET-22 viable bacteria (1.0×10^9 CFU/ml), ET-22 heat-inactivated bacterial cells (obtained by heat-inactivating viable bacteria at 1.0×10^9 CFU/ml), and 2-hydroxy-3-phenylpropionic acid (100 µg/ml), each at 100µl. Then, 800 µl of SHI medium was added. After filling with nitrogen, anaerobic cultivation was performed for 10 hours for loading on machine, and then SPME-GC-MS was used to test the changes in content of volatile organic compound.
GP(HYP)GAG group: In a headspace vial, 100 µl of saliva was added first, followed by the separate addition of ET-22 viable bacteria (1.0×10^9 CFU/ml), ET-22 heat-inactivated bacterial cells (obtained by heat-inactivating viable bacteria at 1.0×10^9 CFU/ml), and GP(HYP)GAG (100 µg/ml), each at 100µl. Then, 800 µl of SHI medium was added. After filling with nitrogen, anaerobic cultivation was performed for 10 hours for loading on machine, and then SPME-GC-MS was used to test the changes in content of volatile organic compound.
Peptidoglycan group: In a headspace vial, 100 µl of saliva was added first, followed by separate addition of ET-22 viable bacteria (1.0×10^9 CFU/ml), ET-22 heat-inactivated bacterial cells (same as Example 1), and peptidoglycan (same as Example 1), each at 100µl. Then, 800 µl of SHI medium was added. After filling with nitrogen, anaerobic cultivation was performed for 10 hours for loading on machine, and then SPME-GC-MS was used to test the changes in content of volatile organic compound.
Helium was used as a carrier gas, with a rate remaining at 1.1 mL min-1. The injector temperature was set at 250°C. Oven temperature program was as follows: holding at 40°C for 1 min, then ramping to 120°C at a rate of 8°C/min, followed by increasing to 230°C at a rate of 5°C/min and holding for 10 minutes. The mass spectrometer was operated in electron ionization (EI) mode, with ion source temperature of 230°C, interface temperature of 200°C, and M/Z scan range of 30-400. To identify specific compounds, their mass spectra were compared with those of true compounds given in the NIST 17 database (V.05). The minimum matching quality for forward and reverse matches was 75/100. The flavor characteristic of each compound was determined based on data from the Good Scents Company Information System (http://www.thegoodscentscompany.com). […]

The next test deals with multi-species biofilm. Kind of test: biomass of multi-species biofilm, crystal violet staining. The class given is cell-based, halitosis subjects (saliva). Here is the method: The association between biofilm biomass and halitosis degree were analyzed by evaluating biofilm formation under intervention with ET-22 viable bacteria, heat-inactivated bacteria, lysate, NAD, 2-hydroxy-3-phenylpropionic acid and peptidoglycan. Test method included the following.
Lysate Group: 10 µl of saliva was added to a 96-well plate, followed by separate addition of ET-22 viable bacteria (1.0×10^9 CFU/ml), ET-22 heat-inactivated bacterial cells (obtained by inactivating viable bacteria at 1.0×10^9 CFU/ml), and lysate (obtained by inactivating and filtering viable bacteria at 1.0×10^9 CFU/ml), each at 100 µl. Then, 80 µl of SHI medium was added. The plate was placed in an anaerobic box and cultured anaerobically at 37°C for 10 hours. Six replicates were set for each group.
NAD Group: 10 µl of saliva was added to a 96-well plate, followed by separate addition of ET-22 viable bacteria (1.0×10^9 CFU/ml), ET-22 heat-inactivated bacterial cells (obtained by heat-inactivating viable bacteria at 1.0×10^9 CFU/ml), and NAD (100 µg/ml), each at 100 µl. Then, 80 µl of SHI medium was added. The plate was placed in an anaerobic box and cultured anaerobically at 37°C for 10 hours. Six replicates were set for each group. […]
(5) The well plate was placed in a microplate reader and the biofilm biomass was measured at 600 nm.

Where [2] appears, read: pure components 100 µg/ml, others from 1.0×10^9 CFU/ml, 10 hours.
Setting [3] is: relative to ET-22 viable bacteria and heat-inactivated bacteria.

For the compound `O=C(O)C(O)Cc1ccccc1` (centres unmarked) [2-hydroxy-3-phenylpropionic acid], in test [1] (setting [2]), the hexanoic acid concentration result is “significantly decrease”, the indole concentration result is given as “significantly decrease” and the propanoic acid concentration entry is “significantly decrease”. Also, in test [1] (setting [3]), the “intervention effect on hexanoic acid” value is recorded as “better”, the “intervention effect on indole” value was “better” and the “intervention effect on propanoic acid” value is listed as “better”. The biofilm biomass entry with multi-species biofilm (compared with CK group, optical density, pure components 100 µg/ml, others from 1.0×10^9 CFU/ml, 37°C 10 hours) is “significant decrease”. In the test with multi-species biofilm (setting [3]), the “intervention effect on the biofilm biomass” value is on record as “better”.
